What all share (format): cell-based
For one assay, the system named is P. aeruginosa LESB58. Put plainly: Broth microdilution MIC, P. aeruginosa LESB58. Particulars: Pseudomonas aeruginosa; P. aeruginosa LESB58 clinical isolate, colistin-resistant, 37° C., 18 h. Here is the method: (§1) Exemplary compounds from the above Examples were tested to determine their minimum inhibitory concentration (MIC) for exemplary strains of Escherichia and Pseudomonas bacteria using broth microdilution methods. Assay procedures and results are described below.
(§2) Broth microdilution assays were conducted according to Clinical and Laboratory Standards Institute guidelines (CLSI, M07-A^11: Clinical and Laboratory Standards Institute. Methods for Dilution Antimicrobial Susceptibility Tests for Bacteria that Grow Aerobically; Approved Standard-11th Edition. Wayne, PA: CLSI, 2018). Briefly, bacterial suspensions were adjusted to a density equivalent to a 0.5 McFarland standard and diluted in sterile, cation-adjusted Mueller-Hinton broth (Beckton Dickinson) to yield a final inoculum between 2×10^5 and 8×10^5 colony-forming units (CFU)/mL. An inoculum volume of 98 μL was added to wells containing 2 μL of 2-fold serial dilutions of drug (prepared in DMSO). All inoculated microdilution trays were incubated in ambient air at 37° C. for 18 h. […] Performance of the assay was monitored by the use of laboratory quality-control strains (S. aureus ATCC 29213 and P. aeruginosa ATCC 27853) and levofloxacin, a compound with a defined MIC spectrum, in accordance with CLSI guidelines (CLSI, M100Ed29: Clinical and Laboratory Standards Institute. Performance Standards for Antimicrobial Susceptibility Testing, 29th Edition. Wayne, PA: CLSI, 2018).
(§3) Multiple enterobacteriaceae strains were tested, including both wild-type strains and multi-drug resistance pump deficient mutants. Specific strains tested included the following: • Wild-type P. aeruginosa PAO1, • P. aeruginosa PAO1 ΔmexABoprM—Disabled multi-drug efflux system Δ(MexAB-OprM), • P. aeruginosa PAO397—PAO1Δ(mexAB-oprM) Δ(mexCD-oprJ) Δ(mexEF-oprN) Δ(mexJK) Δ(mexXY) ΔopmH, • P. aeruginosa LESB58—Clinical isolate; colistin-resistant, isolated in the United Kingdom in 1988 from a patient with cystic fibrosis • E. coli JW0452-3 (BW25113 JacrA::kan)—Disabled multi-drug efflux system (AcrAB-TolC).
(§4) Experimental results are provided in Table 11, which provides MIC values for wild-type P. aeruginosa PAO1 (“PAO1 WT MIC”), P. aeruginosa PAO ΔmexABoprM (“PAO1 KO MIC”), P. aeruginosa PAO397 (“PAO397 KO MIC”), P. aeruginosa LESB58 (“LESB58”), and E. coli JW0452-3 (BW25113 JacrA::kan) (“E. coli KO MIC”).
(Broth dilution looks for growth in wells or tubes with falling amounts of substance.)

For a further assay, the system named is P. aeruginosa PAO397. Kind of assay: Broth microdilution MIC, P. aeruginosa PAO397. The settings on record: Pseudomonas aeruginosa, PAO397, 18 h, read-out: PAO397 KO MIC. As to the method: as §1, §2, §3, §4
The subject of assay [1] is P. aeruginosa PAO1 ΔmexABoprM. Put plainly: Broth microdilution MIC, P. aeruginosa PAO1 ΔmexABoprM. The settings on record: Pseudomonas aeruginosa, PAO1, 18 h, read-out: PAO1 KO MIC. As to the method:
as §1, §2, §3, §4

Assay [2] deals with Wild-type P. aeruginosa PAO1. Put plainly: Broth microdilution MIC, wild-type P. aeruginosa PAO1. Particulars: Pseudomonas aeruginosa; wild-type P. aeruginosa PAO1, 37° C., 18 h; read-out: PAO1 WT MIC. Here is the method:
as §1, §2, §3, §4

The structures appear in SMILES notation. In brackets after ≈: the same amount, converted by molar mass. A value given as a limit tells only on which side of the number the result lay.

As for `N#Cc1cc(F)c(CN(Cc2nnc(N)o2)C(=O)CSc2cccc(F)c2Cl)c(F)c1` [compound 25], the MIC (usually the least concentration at which growth counts as inhibited) was 1 to 16 µg/mL (≈ 2.14 to 34.2 µM) with P. aeruginosa LESB58, below 1 µg/mL with P. aeruginosa PAO397, 1 to 16 µg/mL (≈ 2.14 to 34.2 µM) in assay [1] and 1 to 16 µg/mL (≈ 2.14 to 34.2 µM) in assay [2].

In the case of `N#Cc1ccc(CN(Cc2nnc(N)o2)C(=O)CSc2cc(CCO)ccc2Cl)c(F)c1` [Compound No. 63, N-[(5-Amino-1,3,4-oxadiazol-2-yl)methyl]-2-[2-chloro-5-(2-hydroxyethyl)phenyl]sulfanyl-N-[(4-cyano-2-fluoro-phenyl)methyl]acetamide], the minimum inhibitory concentration (MIC) was 16 to 64 µg/mL (≈ 33.6 to 134 µM) in the assay with P. aeruginosa LESB58, below 1 µg/mL with P. aeruginosa PAO397, 1 to 16 µg/mL (≈ 2.1 to 33.6 µM) in assay [1] and above 64 µg/mL in assay [2].

Turning to `N#Cc1cc(F)c(CN(Cc2nnc(N)o2)C(=O)CSc2cc(F)cc(F)c2Cl)c(F)c1` [compound 26], the MIC was 1 to 16 µg/mL (≈ 2.06 to 32.9 µM) with P. aeruginosa LESB58, below 1 µg/mL in the assay on P. aeruginosa PAO397, below 1 µg/mL in assay [1] and above 64 µg/mL in assay [2].

With `N#Cc1ccc(CN(Cc2nnc(N)o2)C(=O)COc2cccc(Cl)c2)c(F)c1` [compound 20], the MIC against P. aeruginosa LESB58 was above 64 µg/mL; in the assay on P. aeruginosa PAO397 it was 1 to 16 µg/mL (≈ 2.4 to 38.5 µM); in assay [1], 16 to 64 µg/mL (≈ 38.5 to 154 µM); in assay [2] it was above 64 µg/mL.

For `CCc1ccccc1OCC(=O)N(Cc1nnc(N)o1)Cc1ccc(C#N)cc1F` [compound 37], the MIC against P. aeruginosa LESB58 is 16 to 64 µg/mL (≈ 39.1 to 156 µM); with P. aeruginosa PAO397, below 1 µg/mL; in assay [1] it was 1 to 16 µg/mL (≈ 2.44 to 39.1 µM); in assay [2], above 64 µg/mL.

For the molecule `N#Cc1ccc(CN(Cc2nnc(N)o2)C(=O)COc2ccccc2OC(F)(F)F)c(F)c1` [compound 39], the MIC in the assay on P. aeruginosa LESB58 was above 64 µg/mL; in the assay on P. aeruginosa PAO397 it was 1 to 16 µg/mL (≈ 2.15 to 34.4 µM); in assay [1] it was 16 to 64 µg/mL (≈ 34.4 to 138 µM); in assay [2] it was above 64 µg/mL.

As for `CCc1c(F)cccc1OCC(=O)N(Cc1nnc(N)o1)Cc1ccc(C#N)cc1F` [compound 41], the MIC is 1 to 16 µg/mL (≈ 2.34 to 37.4 µM) in the assay on P. aeruginosa LESB58, below 1 µg/mL in the assay with P. aeruginosa PAO397, below 1 µg/mL in assay [1] and above 64 µg/mL in assay [2].

In the case of `Nc1nnc(CN(Cc2ccc(S(N)(=O)=O)cc2)C(=O)CSc2ccccc2Cl)o1` [compound 47], the MIC with P. aeruginosa PAO397 was below 1 µg/mL; in assay [1], 16 to 64 µg/mL (≈ 34.2 to 137 µM); in assay [2], above 64 µg/mL.

Turning to `Nc1nnc(CN(Cc2ccc(=O)[nH]c2)C(=O)CSc2ccccc2Cl)o1` [compound 29], the minimum inhibitory concentration (MIC) in the assay with P. aeruginosa PAO397 is 1 to 16 µg/mL (≈ 2.46 to 39.4 µM); in assay [1] it was above 64 µg/mL; in assay [2], above 64 µg/mL.

Turning to `N#Cc1ccc(CN(Cc2nnc(N)o2)C(=O)CSc2ccccc2Cl)c(F)c1` [compound 13], the MIC against P. aeruginosa LESB58 was 1 to 16 µg/mL (≈ 2.32 to 37 µM); in the assay on P. aeruginosa PAO397, below 1 µg/mL; in assay [1], 1 to 16 µg/mL (≈ 2.32 to 37 µM); in assay [2], 16 to 64 µg/mL (≈ 37 to 148 µM).

On to `N#Cc1ccc(CN(Cc2nnc(N)o2)C(=O)COc2cc(F)cc(F)c2Cl)c(F)c1` [Compound No. 31, N-[(5-Amino-1,3,4-oxadiazol-2-yl)methyl]-2-(2-chloro-3,5-difluoro-phenoxy)-N-[(4-cyano-2-fluoro-phenyl)methyl]acetamide], for which the minimal inhibitory concentration (MIC) against P. aeruginosa LESB58 is 1 to 16 µg/mL (≈ 2.21 to 35.4 µM); in the assay on P. aeruginosa PAO397 it was below 1 µg/mL; in assay [1], 1 to 16 µg/mL (≈ 2.21 to 35.4 µM); in assay [2], above 64 µg/mL.

`CCc1ccc(F)cc1OCC(=O)N(Cc1nnc(N)o1)Cc1ccc(C#N)cc1F` [compound 38]: the minimal inhibitory concentration (MIC) is 16 to 64 µg/mL (≈ 37.4 to 150 µM) in the assay on P. aeruginosa LESB58, below 1 µg/mL in the assay with P. aeruginosa PAO397, 1 to 16 µg/mL (≈ 2.34 to 37.4 µM) in assay [1] and 16 to 64 µg/mL (≈ 37.4 to 150 µM) in assay [2].

As for `N#Cc1ccc(CN(Cc2nnc(N)s2)C(=O)CSc2ccccc2Cl)cc1` [Compound No. 69, N-[(5-Amino-1,3,4-thiadiazol-2-yl)methyl]-2-(2-chlorophenyl)sulfanyl-N-[(4-cyanophenyl)methyl]acetamide], the minimum inhibitory concentration (MIC) was 1 to 16 µg/mL (≈ 2.33 to 37.2 µM) with P. aeruginosa PAO397, 1 to 16 µg/mL (≈ 2.33 to 37.2 µM) in assay [1] and above 64 µg/mL in assay [2].

On to `N#Cc1ccc(CN(Cc2nnc(N)o2)C(=O)CSc2ncccc2Cl)cn1` [compound 12], for which the minimal inhibitory concentration (MIC) is below 1 µg/mL in the assay with P. aeruginosa PAO397, 1 to 16 µg/mL (≈ 2.4 to 38.5 µM) in assay [1] and above 64 µg/mL in assay [2].

For `N#Cc1ccc(CN(Cc2nnc(N)o2)C(=O)COc2cc(F)cc(F)c2Cl)cn1` [Compound No. 18, N-((5-amino-1,3,4-oxadiazol-2-yl)methyl)-2-(2-chloro-3,5-difluorophenoxy)-N-((6-cyanopyridin-3-yl)methyl)acetamide], the MIC in the assay with P. aeruginosa LESB58 was above 64 µg/mL; in the assay with P. aeruginosa PAO397, 1 to 16 µg/mL (≈ 2.3 to 36.8 µM); in assay [1], 1 to 16 µg/mL (≈ 2.3 to 36.8 µM); in assay [2] it was above 64 µg/mL.

In the case of `N#Cc1ccc(CN(Cc2nnc(N)o2)C(=O)CSc2cccc(F)c2Cl)cc1` [compound 52], the minimum inhibitory concentration (MIC) was 1 to 16 µg/mL (≈ 2.32 to 37 µM) against P. aeruginosa LESB58, below 1 µg/mL in the assay with P. aeruginosa PAO397, 1 to 16 µg/mL (≈ 2.32 to 37 µM) in assay [1] and above 64 µg/mL in assay [2].

As to `N#Cc1ccc(CN(Cc2nnc(N)o2)C(=O)CSc2cc(F)cc(F)c2Cl)c(F)c1` [compound 55], the MIC in the assay on P. aeruginosa LESB58 was 1 to 16 µg/mL (≈ 2.14 to 34.2 µM); in the assay on P. aeruginosa PAO397, below 1 µg/mL; in assay [1], below 1 µg/mL; in assay [2], 1 to 16 µg/mL (≈ 2.14 to 34.2 µM).

Turning to `N#Cc1ccc(CN(Cc2nnc(N)o2)C(=O)COc2cccc(Cl)c2Cl)c(F)c1` [compound 34], the minimum inhibitory concentration (MIC) in the assay on P. aeruginosa PAO397 was below 1 µg/mL; in assay [1] it was 16 to 64 µg/mL (≈ 35.5 to 142 µM); in assay [2] it was above 64 µg/mL.

`N#Cc1ccc(CN(Cc2nnc(N)o2)C(=O)CSc2ccccc2Cl)cn1` [compound 14]: the minimal inhibitory concentration (MIC) with P. aeruginosa LESB58 is 16 to 64 µg/mL (≈ 38.6 to 154 µM); with P. aeruginosa PAO397, below 1 µg/mL; in assay [1] it was 1 to 16 µg/mL (≈ 2.41 to 38.6 µM); in assay [2], above 64 µg/mL.

For the molecule `N#Cc1ccc(CN(Cc2nnc(CN)o2)C(=O)CSc2ccccc2Cl)cc1` [Compound No. 67, N-[[5-(Aminomethyl)-1,3,4-oxadiazol-2-yl]methyl]-2-(2-chlorophenyl)sulfanyl-N-[(4-cyanophenyl)methyl]acetamide], the MIC in the assay with P. aeruginosa PAO397 was 1 to 16 µg/mL (≈ 2.34 to 37.4 µM); in assay [1] it was 16 to 64 µg/mL (≈ 37.4 to 150 µM); in assay [2] it was above 64 µg/mL.

With `CCc1c(F)cc(F)cc1OCC(=O)N(Cc1nnc(N)o1)Cc1ccc(C#N)cc1F` [Compound No. 64, N-[(5-Amino-1,3,4-oxadiazol-2-yl)methyl]-N-[(4-cyano-2-fluoro-phenyl)methyl]-2-(2-ethyl-3,5-difluoro-phenoxy)acetamide], the MIC in the assay with P. aeruginosa LESB58 was 1 to 16 µg/mL (≈ 2.25 to 35.9 µM); in the assay with P. aeruginosa PAO397 it was below 1 µg/mL; in assay [1], below 1 µg/mL; in assay [2] it was 16 to 64 µg/mL (≈ 35.9 to 144 µM).

In the case of `N#Cc1ccc(CN(Cc2nnc(N)o2)C(=O)CSc2ccccc2OC(F)(F)F)c(F)c1` [compound 56], the minimum inhibitory concentration (MIC) is above 64 µg/mL with P. aeruginosa LESB58, below 1 µg/mL in the assay on P. aeruginosa PAO397, 16 to 64 µg/mL (≈ 33.2 to 133 µM) in assay [1] and above 64 µg/mL in assay [2].

For `CCc1ccccc1SCC(=O)N(Cc1nnc(N)o1)Cc1ccc(C#N)cc1F` [compound 42], the minimal inhibitory concentration (MIC) was 1 to 16 µg/mL (≈ 2.35 to 37.6 µM) in the assay on P. aeruginosa LESB58, below 1 µg/mL with P. aeruginosa PAO397, 1 to 16 µg/mL (≈ 2.35 to 37.6 µM) in assay [1] and 16 to 64 µg/mL (≈ 37.6 to 150 µM) in assay [2].

Source of the values: patent US20240166612A1, “ARYLTHIOETHER ACETAMIDE AND RELATED COMPOUNDS AND THEIR USE IN TREATING MEDICAL CONDITIONS” (X-Biotix Therapeutics, Inc., priority 2021, published 2024).
